Test results: patent publication US12509444B2, “Compounds and methods for CD73 modulation and indications therefor” (Plexxikon Inc., priority 2019, dated 2025)

Assays:
[1] = target: T1, Human CD73 (amino acid residues 27-549) (Homo sapiens, UniProt P21589); assay: CD73 enzymatic assay (luciferase-based indirect assay, CellTiter-Glo); assay type: biochemical; conditions: 0.4 nM CD73, 150 μM AMP, 1 hour at room temperature
T1 construct: Human CD73 (amino acid residues 27-549); His tag (N); made in house; host or cells: E. coli
T1 sequence (P21589 27-549): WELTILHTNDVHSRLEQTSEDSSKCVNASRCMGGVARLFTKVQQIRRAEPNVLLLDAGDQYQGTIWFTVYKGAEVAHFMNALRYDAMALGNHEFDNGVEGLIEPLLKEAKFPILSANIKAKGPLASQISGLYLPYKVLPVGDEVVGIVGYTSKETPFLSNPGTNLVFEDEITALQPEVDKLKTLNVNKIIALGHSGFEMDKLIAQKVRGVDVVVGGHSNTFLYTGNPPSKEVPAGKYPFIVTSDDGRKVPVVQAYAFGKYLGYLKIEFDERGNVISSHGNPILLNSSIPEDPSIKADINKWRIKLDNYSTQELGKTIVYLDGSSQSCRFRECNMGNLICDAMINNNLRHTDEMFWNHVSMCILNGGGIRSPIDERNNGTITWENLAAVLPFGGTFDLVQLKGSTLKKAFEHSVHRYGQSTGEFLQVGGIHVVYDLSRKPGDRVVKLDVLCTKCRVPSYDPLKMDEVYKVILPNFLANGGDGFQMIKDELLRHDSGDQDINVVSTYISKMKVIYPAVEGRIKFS
Method in brief: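 Residual AMP inhibits luciferase, so luminescence reports CD73 turnover; read with CellTiter-Glo 2.0 plus 1 μM final ATP, 30 min. Reaction used 0.4 nM N-His CD73 (27-549, E. coli), 150 μM AMP, HEPES pH 7.4 with Tween 20, 1 h at room temperature. IC50 fitted by nonlinear regression.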

[2] = target: T2, human CD73 (Homo sapiens, UniProt P21589); assay: Inhibitor activity against CD73 in cell based assay (CD73 expressing CHO-K1 cells); conditions: CHO-K1 cells expressing human CD73, 150 μM AMP, 4 hours of incubation; read-out: CHO-K1 CELL VARIANT: CD73 IC50
T2 construct: expressed in transfected cells
T2 sequence (P21589 27-549): T1 sequence (P21589 27-549)
Method in brief: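 Residual supernatant AMP was quantified via CellTiter-Glo luminescence (1 μM ATP added, 30 min, room temperature) after a 4 h exposure of human CD73-expressing CHO-K1 cells to 150 μM AMP plus compound, top final 10 μM, 8 points. IC50 came from nonlinear regression of percent inhibition.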

Row | SMILES | IC50 [1] | IC50 [2]
1 | O=C(NC1CCCC1(F)F)O[C@@H]1CCN(c2cn[nH]c(=O)c2Cl)C1 (stereo partly drawn) [P-0386, (R)-1-(5-chloro-6-oxo-1,6-dihydropyridazin-4-yl)pyrrolidin-3-yl (2,2-difluorocyclopentyl)carbamate] | 0.001 to 10 µM | 0.001 to 10 µM
2 | CC1(C)CCC(NC(=O)O[C@@H]2CCN(c3cn[nH]c(=O)c3Cl)C2)C1 (stereo partly drawn) [P-0387, (R)-1-(5-chloro-6-oxo-1,6-dihydropyridazin-4-yl)pyrrolidin-3-yl (3,3-dimethylcyclopentyl)carbamate] | 0.001 to 10 µM | 0.001 to 10 µM
3 | O=C(NC1CCN(C(=O)Nc2ccccc2C(F)(F)F)CC1)O[C@@H]1CCN(c2cn[nH]c(=O)c2Cl)C1 [P-0388, (R)-1-(5-chloro-6-oxo-1,6-dihydropyridazin-4-yl)pyrrolidin-3-yl (1-((2-(trifluoromethyl)phenyl)carbamoyl)piperidin-4-yl) carbamate] | 0.001 to 10 µM | 0.001 to 10 µM
4 | O=C(NC1CCN(C(=O)Nc2ccc(C(F)(F)F)cc2)CC1)O[C@@H]1CCN(c2cn[nH]c(=O)c2Cl)C1 [P-0389, (R)-1-(5-chloro-6-oxo-1,6-dihydropyridazin-4-yl)pyrrolidin-3-yl (1-((4-(trifluoromethyl)phenyl)carbamoyl)piperidin-4-yl) carbamate] | 0.001 to 10 µM | 0.001 to 10 µM
5 | O=C(NC1CCN(C(=O)Nc2ccccc2F)CC1)O[C@@H]1CCN(c2cn[nH]c(=O)c2Cl)C1 [P-0390, (R)-1-(5-chloro-6-oxo-1,6-dihydropyridazin-4-yl)pyrrolidin-3-yl (1-((2-fluorophenyl)carbamoyl)piperidin-4-yl)carbamate] | 0.001 to 10 µM | 0.001 to 10 µM
6 | O=C(NC1CCN(C(=O)Nc2cccc(F)c2)CC1)O[C@@H]1CCN(c2cn[nH]c(=O)c2Cl)C1 [P-0391, (R)-1-(5-chloro-6-oxo-1,6-dihydropyridazin-4-yl)pyrrolidin-3-yl (1-((3-fluorophenyl)carbamoyl)piperidin-4-yl)carbamate] | 0.001 to 10 µM | 0.001 to 10 µM
7 | O=C(NC1CCCC1)O[C@@H]1CCN(c2cnn(CCO)c(=O)c2Cl)C1 [P-0392, (R)-1-(5-chloro-1-(2-hydroxyethyl)-6-oxo-1,6-dihydropyridazin-4-yl)pyrrolidin-3-yl cyclopentylcarbamate] | 0.001 to 10 µM | 0.001 to 10 µM
8 | O=C(N[C@H]1CC[C@H](NS(=O)(=O)c2cnn(C3CCCC3)c2)CC1)O[C@@H]1CCN(c2cn[nH]c(=O)c2Cl)C1 [P-0393, (R)-1-(5-chloro-6-oxo-1,6-dihydropyridazin-4-yl)pyrrolidin-3-yl ((1r,4R)-4-((1-cyclopentyl-1H-pyrazole)-4-sulfonamido)cyclohexyl) carbamate] | 0.001 to 10 µM | 0.001 to 10 µM
9 | CN([C@H]1CC[C@H](NC(=O)O[C@@H]2CCN(c3cn[nH]c(=O)c3Cl)C2)CC1)S(C)(=O)=O [P-0394, (R)-1-(5-chloro-6-oxo-1,6-dihydropyridazin-4-yl)pyrrolidin-3-yl ((1r,4R)-4-(N-methylmethylsulfonamido)cyclohexyl)carbamate] | 0.001 to 10 µM | 0.001 to 10 µM
10 | N#Cc1c(N2CC[C@@H](OC(=O)NC3CCCC3)C2)cn[nH]c1=O [P-0395, (R)-1-(5-cyano-6-oxo-1,6-dihydropyridazin-4-yl)pyrrolidin-3-yl cyclopentylcarbamate] | 0.001 to 10 µM | 0.001 to 10 µM
11 | CCn1cc(S(=O)(=O)N[C@H]2CC[C@H](NC(=O)O[C@@H]3CCN(c4cn[nH]c(=O)c4Cl)C3)CC2)cn1 [P-0396, (R)-1-(5-chloro-6-oxo-1,6-dihydropyridazin-4-yl)pyrrolidin-3-yl ((1r,4R)-4-((1-ethyl-1H-pyrazole)-4-sulfonamido)cyclohexyl) carbamate] | 0.001 to 10 µM | 0.001 to 10 µM

Continued, values first:

Row | IC50 [1] | IC50 [2] | SMILES
12 | 0.001 to 10 µM | 0.001 to 10 µM | O=C(NC1CCN(C(=O)C2CCC2)CC1)O[C@@H]1CCN(c2cn[nH]c(=O)c2Cl)C1 [P-0370, (R)-1-(5-chloro-6-oxo-1,6-dihydropyridazin-4-yl)pyrrolidin-3-yl (1-(cyclobutanecarbonyl)piperidin-4-yl)carbamate]
13 | 0.001 to 10 µM | 0.001 to 10 µM | O=C(NC1CCN(C(=O)c2ccno2)CC1)O[C@@H]1CCN(c2cn[nH]c(=O)c2Cl)C1 [P-0371, (R)-1-(5-chloro-6-oxo-1,6-dihydropyridazin-4-yl)pyrrolidin-3-yl (1-(isoxazole-5-carbonyl)piperidin-4-yl)carbamate]
14 | 0.001 to 10 µM | 0.001 to 10 µM | CC(C)C(=O)N1CCC(NC(=O)O[C@@H]2CCN(c3cn[nH]c(=O)c3Cl)C2)CC1 [P-0372, (R)-1-(5-chloro-6-oxo-1,6-dihydropyridazin-4-yl)pyrrolidin-3-yl (1-isobutyrylpiperidin-4-yl)carbamate]
15 | 0.001 to 10 µM | 0.001 to 10 µM | CC(C)(C)C(=O)N1CCC(NC(=O)O[C@@H]2CCN(c3cn[nH]c(=O)c3Cl)C2)CC1 [P-0373, (R)-1-(5-chloro-6-oxo-1,6-dihydropyridazin-4-yl)pyrrolidin-3-yl (1-pivaloylpiperidin-4-yl)carbamate]
16 | 0.001 to 10 µM | 0.001 to 10 µM | O=C(NC1CCN(C(=O)Cc2ccccc2)CC1)O[C@@H]1CCN(c2cn[nH]c(=O)c2Cl)C1 [P-0374, (R)-1-(5-chloro-6-oxo-1,6-dihydropyridazin-4-yl)pyrrolidin-3-yl (1-(2-phenylacetyl)piperidin-4-yl)carbamate]
17 | 0.001 to 10 µM | 0.001 to 10 µM | CC(C)CC(=O)N1CCC(NC(=O)O[C@@H]2CCN(c3cn[nH]c(=O)c3Cl)C2)CC1 [P-0375, (R)-1-(5-chloro-6-oxo-1,6-dihydropyridazin-4-yl)pyrrolidin-3-yl (1-(3-methylbutanoyl)piperidin-4-yl)carbamate]
18 | 0.001 to 10 µM | 0.001 to 10 µM | CCC(=O)N1CCC(NC(=O)O[C@@H]2CCN(c3cn[nH]c(=O)c3Cl)C2)CC1 [P-0376, (R)-1-(5-chloro-6-oxo-1,6-dihydropyridazin-4-yl)pyrrolidin-3-yl (1-propionylpiperidin-4-yl)carbamate]
19 | 0.001 to 10 µM | 0.001 to 10 µM | O=C(NC1CCN(C(=O)C2CCCC2)CC1)O[C@@H]1CCN(c2cn[nH]c(=O)c2Cl)C1 [P-0377, (R)-1-(5-chloro-6-oxo-1,6-dihydropyridazin-4-yl)pyrrolidin-3-yl (1-(cyclopentanecarbonyl)piperidin-4-yl)carbamate]
20 | 0.001 to 10 µM | 10 to 100 µM | CCc1c(N2CC[C@@H](OC(=O)NC3CCC(F)(F)CC3)C2)cn[nH]c1=O [P-0378, (R)-1-(5-ethyl-6-oxo-1,6-dihydropyridazin-4-yl)pyrrolidin-3-yl (4,4-difluorocyclohexyl)carbamate]
21 | 0.001 to 10 µM | 0.001 to 10 µM | N#C[C@H]1CCC[C@H]1NC(=O)O[C@@H]1CCN(c2cn[nH]c(=O)c2Cl)C1 [P-0379, (R)-1-(5-chloro-6-oxo-1,6-dihydropyridazin-4-yl)pyrrolidin-3-yl ((1R,2S)-2-cyanocyclopentyl)carbamate]
22 | 0.001 to 10 µM | 0.001 to 10 µM | N#C[C@@H]1CCC[C@H]1NC(=O)O[C@@H]1CCN(c2cn[nH]c(=O)c2Cl)C1 [P-0380, (R)-1-(5-chloro-6-oxo-1,6-dihydropyridazin-4-yl)pyrrolidin-3-yl ((1R,2R)-2-cyanocyclopentyl)carbamate]
23 | 0.001 to 10 µM | 0.001 to 10 µM | CC1CCCC1NC(=O)O[C@@H]1CCN(c2cn[nH]c(=O)c2Cl)C1 (stereo partly drawn) [P-0381, (R)-1-(5-chloro-6-oxo-1,6-dihydropyridazin-4-yl)pyrrolidin-3-yl (2-methylcyclopentyl)carbamate]
24 | 0.001 to 10 µM | 0.001 to 10 µM | COC(=O)C12CCC(NC(=O)O[C@@H]3CCN(c4cn[nH]c(=O)c4Cl)C3)(CC1)C2 [P-0382, methyl (R)-4-((((1-(5-chloro-6-oxo-1,6-dihydropyridazin-4-yl)pyrrolidin-3-yl)oxy)carbonyl)amino)bicyclo[2.2.1]heptane-1-carboxylate]
25 | 0.001 to 10 µM | 0.001 to 10 µM | O=C(N[C@H]1CCC[C@H]1C(F)(F)F)O[C@@H]1CCN(c2cn[nH]c(=O)c2Cl)C1 [P-0383, (R)-1-(5-chloro-6-oxo-1,6-dihydropyridazin-4-yl)pyrrolidin-3-yl ((1S,2R)-2-(trifluoromethyl)cyclopentyl) carbamate]
26 | 0.001 to 10 µM | 0.001 to 10 µM | O=C(N[C@@H]1CCC[C@H]1O)O[C@@H]1CCN(c2cn[nH]c(=O)c2Cl)C1 [P-0384, (R)-1-(5-chloro-6-oxo-1,6-dihydropyridazin-4-yl)pyrrolidin-3-yl ((1R,2R)-2-hydroxycyclopentyl)carbamate]
27 | 0.001 to 10 µM | 0.001 to 10 µM | O=C(NC1CC2CC2C1)O[C@@H]1CCN(c2cn[nH]c(=O)c2Cl)C1 (stereo partly drawn) [P-0385, (R)-1-(5-chloro-6-oxo-1,6-dihydropyridazin-4-yl)pyrrolidin-3-yl bicyclo[3.1.0]hexan-3-ylcarbamate]
